In patent US5631382A, “Fulgimide compound” (Tokuyama Corporation, priority 1994, dated 1997):

How the values were obtained:
Assay type in all cases: physicochemical
[1] = Developed color of polymer plate under xenon light (color density, maximum absorption wavelength); conditions: for Color density: 0.04 parts in polymer plate; for λ max: state of developing color, polymer plate
Text: (§1) 0.04 Parts of fulgimide compounds shown in Table 3, 70 parts of tetraethyleneglycol dimethacrylate, 15 parts of triethyleneglycol dimethacrylate, 10 parts of glycidyl methacrylate, 5 parts of 2-hydroethylmethacrylate and 1 part of perbutyl ND as a polymerization catalyst, were sufficiently mixed together until they were completely dissolved. The mixture solution was poured into a mold constituted by a glass plate and a gasket of an ethylene/vinyl acetate copolymer, and its temperature was elevated in an air oven from 35° C. to 90° C. over a period of 20 hours to effect the polymerization. After the polymerization, the polymer was taken out from the glass mold.
(§2) The obtained polymer plate was irradiated with xenon light by using a Xenon Long-Life Fade Meter FAL-25AX-HC (output: 2.5 KW, source of light: xenon long-life arc lamp) manufactured by Suga Shikenki Co., in order to measure a maximum absorption wavelength in a state of developing color. The initial color tone was observed by eyes, and YI of the samples was measured by using a color-difference meter (Model SM-4) manufactured by Suga Shikenki Co. The wear life (T 1/2) was also measured in compliance with JIS L0843 and JIS B7754. T 1/2 is defined to be the time until the color density decreases down to one-half the initial value when the polymer plate is irradiated with light by using the fade meter.
(§3) For the purpose of comparison, the fulgimide compounds represented by the following formulas (A) to (I) were also used to prepare polymer plates to measure their properties in the same procedure as described above. [drawing 113]

[2] = Wear life (T 1/2) of polymer plate in xenon fade meter, JIS L0843 and JIS B7754; conditions: time until color density decreases to one-half the initial value
Text: as §1, §2, §3

[3] = Initial color of polymer plate (visual observation, YI by color-difference meter); conditions: for Initial color, visually observed: before irradiation; for Initial color, YI: color-difference meter SM-4
Text: as §1, §2, §3

| Color density [1] | λ max [1] | T1/2 [2] | Initial color, visually observed [3] | Initial color, YI [3] | Compound |
| --- | --- | --- | --- | --- | --- |
| 1.12 | 620 nm | 140 h | pale yellow | 4.99 | O=C1C2=C(C3CC3)c3c(sc4c3CCCC4)C3(C4CC5CC(C4)CC3C5)C2C(=O)N1S(=O)(=O)c1ccccc1 (centres unmarked) [Compound 10] |
| 0.73 | 630 nm | 80 h | yellow | 18.89 | COc1ccc(-c2cc3c(n2C)C2(C4CC5CC(C4)CC2C5)C2C(=O)N(CC#N)C(=O)C2=C3C)cc1 (centres unmarked) [I, reference compound] |
| 0.68 | 540 nm | 100 h | yellow | 10.03 | CCN1C(=O)C2=C(C)c3ccsc3C3(C4CC5CC(C4)CC3C5)C2C1=O (centres unmarked) [A, reference compound] |
| 0.81 | 603 nm | 110 h | colorless | 3.05 | CSc1cc2c(n1C)C1(C3C(=O)N(C(F)(F)F)C(=O)C3=C2C(C)C)C2(C)CCC1(C)CC2 (centres unmarked) [Compound 19] |
| 0.95 | 540 nm | 115 h | colorless | 2.95 | O=C1C2=C(c3ccccc3)c3c(oc4ccccc34)C3(C4CCC3CC4)C2C(=O)N1C(Cl)(Cl)Cl (centres unmarked) [Compound 21] |
| 0.78 | 620 nm | 80 h | yellow | 19.52 | CCOC(=O)CN1C(=O)C2=C(C)c3cc(-c4ccc(OC)cc4)n(C)c3C3(C4CC5CC(C4)CC3C5)C2C1=O (centres unmarked) [H, reference compound] |
| 0.70 | 550 nm | 105 h | colorless | 2.11 | CC(=O)N1C(=O)C2=C(C)c3ccsc3C3(C4CC5CC(C4)CC3C5)C2C1=O (centres unmarked) [Compound 32] |
| 0.73 | 590 nm | 210 h | colorless | 2.21 | COc1cc(OC)c2c(c1)C(C)=C1C(=O)N(C#N)C(=O)C1C21C2CC3CC(C2)CC1C3 (centres unmarked) [Compound 30] |
| 0.54 | 546 nm | 120 h | colorless | 3.84 | COc1c(C)sc2c1C1(C3CC4CC(C3)CC1C4)C1C(=O)N(C(=O)Oc3ccccc3)C(=O)C1=C2C (centres unmarked) [Compound 26] |
| 0.87 | 600 nm | 140 h | colorless | 2.36 | CC(=O)N1C(=O)C2=C(C3CC3)c3c(sc4c3CCCC4)C3(C4CCC3CC4)C2C1=O (centres unmarked) [Compound 23] |
| 0.82 | 570 nm | 90 h | yellow | 10.75 | CC1=C2C(=O)N(CC#N)C(=O)C2C2(c3sc(-c4ccccc4)cc31)C1CC3CC(C1)CC2C3 (centres unmarked) [D, reference compound] |
| 0.75 | 603 nm | 100 h | pale yellow | 4.89 | Cn1c(Cl)cc2c1C1(C3CCCC1(Cl)CCC3)C1C(=O)N(C(F)(F)F)C(=O)C1=C2c1ccccc1 (centres unmarked) [Compound 14] |
| 1.02 | 610 nm | 145 h | colorless | 3.85 | COC12CC3CC(C1)C1(c4c(c5ccccc5n4-c4ccccc4)C(C4CC4)=C4C(=O)N(C(Cl)(Cl)Cl)C(=O)C41)C(C3)C2 (centres unmarked) [Compound 9] |
